The nature of the series: Effect of L-lysine co-injection on renal and tumor uptakes. The series is classed as in vivo, C57 mice. The following applies: 15 mg of L-lysine, 2 h post-injection; for tissue uptake at 2 h: C57, mouse, kidneys, with L-lysine, 15 mg co-injected, total radioactivity. Here is the method: The effects of L-lysine co-injection on the renal uptakes of ^99mTc-RGD-Arg-(Arg^11)CCMSH and ^99mTc-RGD-Lys-(Arg^11)CCMSH was examined in B16/F1 melanoma-bearing C57 as well. Two groups of 5 mice were injected with an aqueous mixture of 0.037 MBq of ^99mTc-RGD-Arg-(Arg^11)CCMSH and 15 mg of L-lysine or an aqueous mixture of 0.037 MBq of ^99mTc-RGD-Lys-(Arg^11)CCMSH and 15 mg of L-lysine, respectively. The mice were sacrificed at 2 h post-injection, and tumors and kidneys were harvested, weighed and counted.

SMILES strings stand for the structures. Positions of bridges follow the written chain, without caps; N, C: chain ends. Non-standard residues stand in square brackets, D forms with d. Residues, ends and D or L forms follow the SMILES beside them.

Take `CC(C)[C@H](NC(=O)[C@@H]1CCCN1C(=O)[C@H](CCCNC(=N)N)NC(=O)[C@H](CS)NC(=O)[C@H](Cc1c[nH]c2ccccc12)NC(=O)[C@H](CCCNC(=N)N)NC(=O)[C@@H](Cc1ccccc1)NC(=O)[C@H](Cc1c[nH]cn1)NC(=O)[C@H](CCC(=O)O)NC(=O)[C@H](CS)NC(=O)[C@H](CS)NC(=O)[C@H](CCCCN)NC(=O)[C@@H]1CC(=O)N[C@@H](CCCNC(=N)N)C(=O)NCC(=O)N[C@@H](CC(=O)O)C(=O)N[C@H](Cc2ccc(O)cc2)C(=O)N1)C(N)=O` [^99mTc-RGD-Lys-(Arg^11)CCMSH, metal not drawn] (RGD[dY]DKCCEH[dF]RWCRPV-NH2; lactam N-5): the “Effect of L-lysine co-injection on the tumor uptake” value is on record as “without affecting”; the “Reduction of renal uptake by L-lysine co-injection” value turned out to be 52.1%; the tissue uptake (in general, the share of the injected amount in each gram of the tissue) at 2 h was 32.2 ± 5.98 %ID/g.
For `CC(C)[C@H](NC(=O)[C@@H]1CCCN1C(=O)[C@H](CCCNC(=N)N)NC(=O)[C@H](CS)NC(=O)[C@H](Cc1c[nH]c2ccccc12)NC(=O)[C@H](CCCNC(=N)N)NC(=O)[C@@H](Cc1ccccc1)NC(=O)[C@H](Cc1c[nH]cn1)NC(=O)[C@H](CCC(=O)O)NC(=O)[C@H](CS)NC(=O)[C@H](CS)NC(=O)[C@H](CCCNC(=N)N)NC(=O)[C@@H]1CC(=O)N[C@@H](CCCNC(=N)N)C(=O)NCC(=O)N[C@@H](CC(=O)O)C(=O)N[C@H](Cc2ccc(O)cc2)C(=O)N1)C(N)=O` [^99mTc-RGD-Arg-(Arg^11)CCMSH, metal not drawn] (RGD[dY]DRCCEH[dF]RWCRPV-NH2; lactam N-5), the “Effect of L-lysine co-injection on the tumor uptake” value was “without affecting”, the “Reduction of renal uptake by L-lysine co-injection” value turned out to be 27.7% and the tissue uptake at 2 h amounted to 31.1 ± 6.42 %ID/g.
